Values of other authors as cited in PubChem BioAssay AID1259409 (Chemical Carcinogenesis Research Information System (CCRIS), 2018).

System: rodent chemically induced tumor inhibition, incidence and multiplicity
Test: CCRIS tumor inhibitor studies
Settings: Dose [Inhibitor]: 0, Route [Inhibitor]: GAVAGE, Species: MOUSE, Promoter: NONE USED

## O=C(/C=C/C=C/c1ccc2c(c1)OCO2)N1CCCCC1
Carcinogen: METHYLCHOLANTHRENE, 56-49-5, 5.5 MG IN 0.05 ML SUNFLOWER OIL 1/WK FOR 1 YR BEGINNING POST CARCINOGEN TREATMENT (STUDY DURATION: 24 MO), Strain/Sex: SWISS/FEMALE, Target Tissue: Type of Lesion: LUNG: PAPILLARY ADENOMA AND ADENOCARCINOMA, Dose [Carcinogen]: 0.01 MG ON D 1, 7, 14 AND 21 AFTER BIRTH
  tumour outcome (control, treated, inhibition, significance): 7/11 (64%), 9/12 (75%), -17%, not calculated
Carcinogen: METHYLCHOLANTHRENE, 56-49-5, 5.5 MG IN 0.05 ML SUNFLOWER OIL 1/WK FOR 1 YR BEGINNING POST CARCINOGEN TREATMENT (STUDY DURATION: 24 MO), Strain/Sex: SWISS/MALE, Target Tissue: Type of Lesion: LIVER: HEPATOCELLULAR ADENOMA AND CARCINOMA
  tumour outcome (control, treated, inhibition, significance): 3/13 (23%), 4/13 (31%), -35%, not calculated
Carcinogen: METHYLCHOLANTHRENE, 56-49-5, 5.5 MG IN 0.05 ML SUNFLOWER OIL 1/WK FOR 1 YR BEGINNING POST CARCINOGEN TREATMENT (STUDY DURATION: 24 MO), Strain/Sex: SWISS/MALE, Target Tissue: Type of Lesion: LUNG: PAPILLARY ADENOMA AND ADENOCARCINOMA, Dose [Carcinogen]: 0.01 MG ON D 1, 7, 14 AND 21 AFTER BIRTH
  tumour outcome (control, treated, inhibition, significance): 10/13 (77%), 10/13 (77%), 0%, not significant
Carcinogen: METHYLCHOLANTHRENE, 56-49-5, 5.5 MG IN 0.05 ML SUNFLOWER OIL 1/WK FOR 1 YR BEGINNING POST CARCINOGEN TREATMENT (STUDY DURATION: 24 MO), Strain/Sex: SWISS/MALE, Target Tissue: Type of Lesion: SKIN: SARCOMA AND CARCINOMA, Dose [Carcinogen]: 0.01 MG ON D 1, 7, 14 AND 21 AFTER BIRTH
  tumour outcome (control, treated, inhibition, significance): 5/13 (38%), 2/13 (15%), 61%, not calculated
Carcinogen: METHYLCHOLANTHRENE, 56-49-5, 5.5 MG IN 0.05 ML SUNFLOWER OIL 1/WK FOR 1 YR BEGINNING POST CARCINOGEN TREATMENT (STUDY DURATION: 24 MO), Strain/Sex: SWISS/MALE, Target Tissue: Type of Lesion: SPLEEN: LYMPHOMA, Dose [Carcinogen]: 0.01 MG ON D 1, 7, 14 AND 21 AFTER BIRTH
  tumour outcome (control, treated, inhibition, significance): 2/13 (15%), 3/13 (23%), -53%, not calculated
Carcinogen: SAFROLE, 94-59-7, 5.5 MG IN 0.05 ML SUNFLOWER OIL 1/WK FOR 1 YR BEGINNING POST CARCINOGEN TREATMENT (STUDY DURATION: 24 MO), Strain/Sex: SWISS/FEMALE, Target Tissue: Type of Lesion: LUNG: PAPILLARY ADENOCARCINOMA, Dose [Carcinogen]: 0.2 MG ON D 1 AND 7 AFTER BIRTH THEN 0.4 MG ON D 14 AND 21
  tumour outcome (control, treated, inhibition, significance): 3/18 (17%), 2/19 (11%), 35%, not calculated
Carcinogen: SAFROLE, 94-59-7, 5.5 MG IN 0.05 ML SUNFLOWER OIL 1/WK FOR 1 YR BEGINNING POST CARCINOGEN TREATMENT (STUDY DURATION: 24 MO), Strain/Sex: SWISS/FEMALE, Target Tissue: Type of Lesion: SKIN: SARCOMA, Dose [Carcinogen]: 0.2 MG ON D 1 AND 7 AFTER BIRTH THEN 0.4 MG ON D 14 AND 21
  tumour outcome (control, treated, inhibition, significance): 2/18 (11%), 0/19 (0%), 100%, not calculated
Carcinogen: SAFROLE, 94-59-7, 5.5 MG IN 0.05 ML SUNFLOWER OIL 1/WK FOR 1 YR BEGINNING POST CARCINOGEN TREATMENT (STUDY DURATION: 24 MO), Strain/Sex: SWISS/MALE, Target Tissue: Type of Lesion: LIVER: HEPATOCELLULAR CARCINOMA, Dose [Carcinogen]: 0.2 MG ON D 1 AND 7 AFTER BIRTH THEN 0.4 MG ON D 14 AND 21
  tumour outcome (control, treated, inhibition, significance): 7/24 (29%), 1/23 (4%), 86%, p<0.05
Carcinogen: SAFROLE, 94-59-7, 5.5 MG IN 0.05 ML SUNFLOWER OIL 1/WK FOR 1 YR BEGINNING POST CARCINOGEN TREATMENT (STUDY DURATION: 24 MO), Strain/Sex: SWISS/MALE, Target Tissue: Type of Lesion: LUNG: PAPILLARY ADENOCARCINOMA, Dose [Carcinogen]: 0.2 MG ON D 1 AND 7 AFTER BIRTH THEN 0.4 MG ON D 14 AND 21
  tumour outcome (control, treated, inhibition, significance): 5/24 (21%), 2/23 (9%), 57%, not calculated
Carcinogen: SAFROLE, 94-59-7, 5.5 MG IN 0.05 ML SUNFLOWER OIL 1/WK FOR 1 YR BEGINNING POST CARCINOGEN TREATMENT (STUDY DURATION: 24 MO), Strain/Sex: SWISS/MALE, Target Tissue: Type of Lesion: SKIN: SARCOMA, Dose [Carcinogen]: 0.2 MG ON D 1 AND 7 AFTER BIRTH THEN 0.4 MG ON D 14 AND 21
  tumour outcome (control, treated, inhibition, significance): 2/24 (8%), 0/23 (0%), 100%, not calculated
Carcinogen: SAFROLE, 94-59-7, 5.5 MG IN 0.05 ML SUNFLOWER OIL 1/WK FOR 1 YR BEGINNING POST CARCINOGEN TREATMENT (STUDY DURATION: 24 MO), Strain/Sex: SWISS/MALE, Target Tissue: Type of Lesion: SPLEEN: LYMPHOMA, Dose [Carcinogen]: 0.2 MG ON D 1 AND 7 AFTER BIRTH THEN 0.4 MG ON D 14 AND 21
  tumour outcome (control, treated, inhibition, significance): 6/24 (25%), 3/23 (13%), 48%, not calculated
Carcinogen: SAFROLE, 94-59-7, 5.5 MG IN 0.05 ML SUNFLOWER OIL 1/WK FOR 1 YR BEGINNING POST CARCINOMA TREATMENT (STUDY DURATION: 24 MO), Strain/Sex: SWISS/FEMALE, Target Tissue: Type of Lesion: SPLEEN: LYMPHOMA, Dose [Carcinogen]: 0.2 MG ON D 1 AND 7 AFTER BIRTH THEN 0.4 MG ON D 14 AND 21
  tumour outcome (control, treated, inhibition, significance): 9/18 (50%), 7/19 (37%), 26%, not calculated
Carcinogen: TANNIC ACID, 1401-55-4, 5.5 MG IN 0.05 ML SUNFLOWER OIL 1/WK FOR 1 YR BEGINNING POST CARCINOGEN TREATMENT (STUDY DURATION: 24 MO), Strain/Sex: SWISS/FEMALE, Target Tissue: Type of Lesion: LUNG: PAPILLARY ADENOCARCINOMA, Dose [Carcinogen]: 25 MG/KG BW ON D 1, 7, 14 AND 21 AFTER BIRTH
  tumour outcome (control, treated, inhibition, significance): 2/8 (25%), 1/9 (11%), 56%, not calculated
Carcinogen: TANNIC ACID, 1401-55-4, 5.5 MG IN 0.05 ML SUNFLOWER OIL 1/WK FOR 1 YR BEGINNING POST CARCINOGEN TREATMENT (STUDY DURATION: 24 MO), Strain/Sex: SWISS/FEMALE, Target Tissue: Type of Lesion: SPLEEN: LYMPHOMA, Dose [Carcinogen]: 25 MG/KG BW ON D 1, 7, 14 AND 21 AFTER BIRTH
  tumour outcome (control, treated, inhibition, significance): 4/8 (50%), 4/9 (44%), 12%, not calculated
Carcinogen: TANNIC ACID, 1401-55-4, 5.5 MG IN 0.05 ML SUNFLOWER OIL 1/WK FOR 1 YR BEGINNING POST CARCINOGEN TREATMENT (STUDY DURATION: 24 MO), Strain/Sex: SWISS/MALE, Target Tissue: Type of Lesion: LUNG: PAPILLARY ADENOCARCINOMA, Dose [Carcinogen]: 25 MG/KG BW ON D 1, 7, 14 AND 21 AFTER BIRTH
  tumour outcome (control, treated, inhibition, significance): 3/12 (25%), 2/12 (17%), 32%, not calculated
Carcinogen: TANNIC ACID, 1401-55-4, 5.5 MG IN 0.05 ML SUNFLOWER OIL 1/WK FOR 1 YR BEGINNING POST CARCINOGEN TREATMENT (STUDY DURATION: 24 MO), Strain/Sex: SWISS/MALE, Target Tissue: Type of Lesion: SPLEEN: LYMPHOMA, Dose [Carcinogen]: 25 MG/KG BW ON D 1, 7, 14 AND 21 AFTER BIRTH
  tumour outcome (control, treated, inhibition, significance): 5/12 (42%), 3/12 (25%), 40%, not calculated
